For experiment [1], the system named is PC-3 human prostatic cancer cells. Briefly: PC-3 prostatic tumour xenograft in SCID mice, combination with mitoxantrone (1.4). The format is in vivo, human cells in mice. (In general: Xenograft models place foreign cells or tissue in a host animal.)
Experimental: (§3) After 52 days the mice were sacrificed and the tumours weighed. […] In both experiments, PC-3 human prostatic cancer cells (1×10^7 cells in 100 μl of PBS) were subcutaneously injected into the right flank of 6-7 weeks old male SCID mice. After the size of tumour reached an approximate volume of 50 mm^3, 14 days post tumour cell injection, SEQ ID NO: 1 was administered by bolus infusion into the tail vein every other day at 10 mg/kg 18 times (FIG. 4A) or 17 times (FIG. 4B), respectively. Control animals received saline alone for the same period. Antitumour effect of SEQ ID NO:1 was further compared to that of mitoxantrone (novantrone) alone or in combination. Mitoxantrone was administered intravenously once at the beginning of the treatments at a dose of 2 mg/kg (FIG. 4A) or once a week for four weeks at a reduced dose of 0.8 mg/kg (FIG. 4B). All treatments were stopped at day 50 (FIG. 4A) or 48 (FIG. 4B), respectively. A day after the last treatment, tumours were excised from the animals and their weights were measured. […] In both experiments, DU145 human prostatic cancer cells (1×10^7 cells in 100 μl of PBS) were subcutaneously injected into the right flank of 6-7 weeks old male SCID mice. After the size of tumour reached an approximate volume of 50 mm^3, 13 (FIG. 5A) or 11 (FIG. 5B) days post tumour cell injection, SEQ ID NO:1 was administered by bolus infusion into the tail vein every other day at 10 mg/kg 15 times (FIG. 5A) or 14 times (FIG. 5B), respectively. Control animals received saline alone for the same period. Antitumour effect of SEQ ID NO:1 was further compared to that of mitoxantrone (novantrone) alone or in combination. Mitoxantrone was administered intravenously once at the beginning of the treatments at a dose of 2 mg/kg (FIG. 5A) or once a week for four weeks at a reduced dose of 0.8 mg/kg (FIG. 5B). All treatments were stopped at day 42 (FIG. 5A) or 38 (FIG. 5B), respectively. A day after the last treatment, tumours were excised from the animals and their weights were measured.
Experiment [2] concerns DU145 human prostatic cancer cells. The experiment in a line: DU145 prostatic tumour xenograft in SCID mice, combination with mitoxantrone (1.5). Format: in vivo, human cells in mice. The note with it: for Tumour weight as % of saline control: DU145 (prostatic), SCID, SEQ ID NO:1 10 mg/kg i.v. every other day, mitoxantrone i.v.
Experimental: as §3
The subject of experiment [3] is Human taxol-resistant promyelocytic leukaemia cells (HL-60). The experiment in a line: HL-60 taxol-resistant promyelocytic leukaemia tumour in SCID mice (2.7). The settings on record: SEQ ID NO:1 10 mg/kg i.v. every other day. Format: in vivo, human cells in mice. As to the method: BxPC-3 is a gemcitabine resistant call line. […] Gemcitabine was administered intravenously every three days at a dose of 100 mg/kg. Antitumour activities were estimated by the inhibition of tumour volume, which was measured with caliper. Each point represents mean tumour volume calculated from 10 animals per experimental group. […] Hela S3 is a hydroxyurea resistant cell line. […] Hydroxyurea was administered intraperitoneally every day at a dose of 250 mg/kg for 10 days. Cisplatin was administered intravenously once a week for three weeks at a dose of 4 mg/kg. Antitumour activities were estimated by the inhibition of tumour volume, which was measured with caliper. Each point represents mean tumour volume calculated from 10 animals per experimental group. […] Cisplatin was administered intravenously once a week for three weeks at a dose of 4 mg/kg. Taxol was administered intravenously once a week for three weeks at a dose of 10 mg/kg. Antitumour activities were estimated by the inhibition of tumour volume, which was measured with caliper. Each point represents mean tumour volume calculated from 10 animals per experimental group. […] Taxol was administered i.p. once a week at a dose of 10 mg/kg. Antitumour activities were estimated by the inhibition of tumour volume (FIG. 12A), which was measured with calipers. Each point represents mean tumour volume calculated from 10 animals per experimental group. Animals were sacrificed and tumour weights taken at the end of the study (FIG. 12C). […] Cisplatin was administered intravenously once a week for four weeks at a dose of 4 mg/kg. Taxol was administered intravenously once a week for four weeks at a dose of 20 mg/kg. Antitumour activities were estimated by the inhibition of tumour volume, which was measured with caliper. Each point represents mean tumour volume calculated from 9-10 animals per experimental group. […] Cisplatin was administered intravenously once a week for four weeks at a dose of 4 mg/kg. Antitumour activities were estimated by the inhibition of tumour volume, which was measured with caliper. Each point represents mean tumour volume calculated from 10 animals per experimental group. At the end of the study the animals were sacrificed and tumours weighed. […] Taxol was administered i.p. once a week at a dose of 10 mg/kg. Anti-tumour activity was estimated by the inhibition of tumour volume, which was measured with caliper. Each point represents mean tumour volume calculated from 10 animals per experimental group. […] Antitumour activities were estimated by the inhibition of tumour volume, which was measured with caliper. Each point represents mean tumour volume calculated from 10 animals per experimental group. Tumour weights were measured after animals were sacrificed at the end of the treatment. […]

In experiment [4] the test system is MDA-CDDP-S4 human in vivo-selected Cisplatin-resistant breast adenocarcinoma cells. Briefly: MDA-CDDP-S4 Cisplatin-resistant breast adenocarcinoma, fat pad, CB-17 SCID mice, combination with Taxol (2.4). Further details: species or system human cells in mice. The note with it: MDA-CDDP-S4 (breast), Cisplatin resistant, SCID, SEQ ID NO:1 10 mg/kg i.v. every other day, Taxol 10 mg/kg i.p. weekly. As to the method:
(§1) BxPC-3 is a gemcitabine resistant call line. […] Gemcitabine was administered intravenously every three days at a dose of 100 mg/kg. Antitumour activities were estimated by the inhibition of tumour volume, which was measured with caliper. Each point represents mean tumour volume calculated from 10 animals per experimental group. […] Hela S3 is a hydroxyurea resistant cell line. […] Hydroxyurea was administered intraperitoneally every day at a dose of 250 mg/kg for 10 days. Cisplatin was administered intravenously once a week for three weeks at a dose of 4 mg/kg. Antitumour activities were estimated by the inhibition of tumour volume, which was measured with caliper. Each point represents mean tumour volume calculated from 10 animals per experimental group. […] Cisplatin was administered intravenously once a week for three weeks at a dose of 4 mg/kg. Taxol was administered intravenously once a week for three weeks at a dose of 10 mg/kg. Antitumour activities were estimated by the inhibition of tumour volume, which was measured with caliper. Each point represents mean tumour volume calculated from 10 animals per experimental group. […] Taxol was administered i.p. once a week at a dose of 10 mg/kg. Antitumour activities were estimated by the inhibition of tumour volume (FIG. 12A), which was measured with calipers. Each point represents mean tumour volume calculated from 10 animals per experimental group. Animals were sacrificed and tumour weights taken at the end of the study (FIG. 12C). […] Cisplatin was administered intravenously once a week for four weeks at a dose of 4 mg/kg. Taxol was administered intravenously once a week for four weeks at a dose of 20 mg/kg. Antitumour activities were estimated by the inhibition of tumour volume, which was measured with caliper. Each point represents mean tumour volume calculated from 9-10 animals per experimental group. […] Cisplatin was administered intravenously once a week for four weeks at a dose of 4 mg/kg. Antitumour activities were estimated by the inhibition of tumour volume, which was measured with caliper. Each point represents mean tumour volume calculated from 10 animals per experimental group. At the end of the study the animals were sacrificed and tumours weighed. […] Taxol was administered i.p. once a week at a dose of 10 mg/kg. Anti-tumour activity was estimated by the inhibition of tumour volume, which was measured with caliper. Each point represents mean tumour volume calculated from 10 animals per experimental group. In addition animals were sacrificed and tumour weights taken at the end of the study. […] CPT-11 was administered i.p. for 5 days at a dose of 20 mg/kg/day. Antitumour activities were estimated by the inhibition of tumour volume, which was measured with caliper. Each point represents mean tumour volume calculated from 10 animals per experimental group. Tumour weights were measured after animals were sacrificed at the end of the treatment. These cells are not resistant to CPT-11 which was used as a positive control.

Experiment [5] relates to MDA-MB435-To.1 human Taxol-resistant breast adenocarcinoma cells. The experiment in a line: MDA-MB435-To.1 Taxol-resistant breast adenocarcinoma, fat pad, SCID mice (2.5). Format: in vivo, human cells in mice. As to the method:
as §1

The subject of experiment [6] is MDA-CDDP-S4 human in vivo-selected Cisplatin-resistant breast adenocarcinoma cells. The experiment in a line: MDA-CDDP-S4 Cisplatin-resistant breast adenocarcinoma, fat pad, SCID mice (2.3). Also noted: species or system human cells in mice. The note with it: MDA-CDDP-S4 (breast), Cisplatin resistant, SCID; SEQ ID NO:1 10 mg/kg i.v. every other day 9 times; Taxol 10 mg/kg, Cisplatin 4 mg/kg i.v. weekly x3. As to the method:
as §1

The subject of experiment [7] is SK-OV-3 human ovary adenocarcinoma cells. The experiment in a line: SK-OV-3 ovary tumour xenograft in CD-1 nude mice, combination with taxol or cisplatin (1.8). The note with it: SK-OV-3 (ovary), CD-1; SEQ ID NO:1 10 mg/kg i.v. every other day 17 times; Taxol 10 mg/kg weekly; Cisplatin 4 mg/kg weekly. The format is in vivo, human cells in mice. As to the method: (§2) After 52 days the mice were sacrificed and the tumours weighed. […] Mitoxantrone was administered intravenously once at the beginning of the treatments at a dose of 2 mg/kg (FIG. 4A) or once a week for four weeks at a reduced dose of 0.8 mg/kg (FIG. 4B). All treatments were stopped at day 50 (FIG. 4A) or 48 (FIG. 4B), respectively. […] Mitoxantrone was administered intravenously once at the beginning of the treatments at a dose of 2 mg/kg (FIG. 5A) or once a week for four weeks at a reduced dose of 0.8 mg/kg (FIG. 5B). All treatments were stopped at day 42 (FIG. 5A) or 38 (FIG. 5B), respectively. […] A2058 is a metastatic melanoma cell line. […] All treatments were stopped at day 24. […] Taxol was administered intravenously once a week at a dose of 10 mg/kg for three (FIG. 7A) or four weeks (FIG. 7C). Doxorubicin was administered intravenously once a week at a dose of 5 mg/kg for first three weeks (FIG. 7A) or for two weeks (FIG. 7C). All treatments were stopped at day 33 (FIG. 7A) or at day 26 (FIG. 7C), respectively. […] In FIG. 7C, antitumour activities were estimated by the inhibition of tumour volume, which was measured with calipers. Each point represents mean tumour volume calculated from 10 animals per experimental group. […] Taxol was administered intravenously once a week for first three weeks and intraperitoneally once a week for next two weeks at a dose of 10 mg/kg. Cisplatin was administered intravenously once a week for first three weeks and intraperitoneally once a week for next two weeks at a dose of 4 mg/kg. All treatments were stopped at day 40. Antitumour activities were estimated by the inhibition of tumour volume, which was measured with caliper. Each point represents mean tumour volume calculated from 9 animals per experimental group.

For experiment [8], the system named is MDA-MB-231 human breast cancer cells. The experiment in a line: MDA-MB-231 breast tumour xenograft in CD-1 nude mice, combination with taxol or doxorubicin (1.7). Format: in vivo, human cells in mice. The note with it: MDA-MB-231 (breast), CD-1; SEQ ID NO:1 10 mg/kg i.v. every other day; Taxol 10 mg/kg i.v. weekly; doxorubicin 5 mg/kg i.v. weekly. As to the method:
as §2

In experiment [9] the test system is Caki-1 human renal cancer cells. Briefly: Caki-1 renal tumour xenograft, combination with 5-FU or vinblastin (1.3). The format is in vivo, human cells in mice. The settings on record: Caki (renal), CD-1 mouse as printed; SEQ ID NO:1 10 mg/kg i.v. every other day; 5-FU 13 mg/kg/day i.p.; vinblastin 0.6 mg/kg/week i.p. An excerpt: All treatments were stopped at day 22. […] All treatments were stopped at day 32. […] All treatments were stopped at day 36.

Experiment [10] has as its system A498 human kidney cancer cells. The experiment in a line: A498 kidney tumour xenograft in SCID mice, controls and chemotherapeutics (Example 7). Format: in vivo, human cells in mice. The settings on record: oligonucleotides 10 mg/kg/2 days i.v., 5-FU 13 mg/kg/day×5, vinblastine 1 mg/kg/week, gemcitabine 100 mg/kg/week. The source says: CD-1 athymic female nude mice, BALB/c nu/nu nude mice, SCID, and SCID beige mice were purchased from Charles River Laboratories (Montreal, Canada) and experiments were typically initiated when the mice were 6-7 weeks old. […] Each experimental group typically contained 10 mice. After the size of tumour reached a mean tumour volume of 50-100 mm^3, treatment was initiated. […] Anti-tumour activity was estimated by the measurement of tumour volume with a calliper at two-three day intervals. Tumour volume was calculated by a formula L×W×H/2, where L indicates length, W indicates width and H indicates height. Within 24 hours after the last treatment, the animals were sacrificed and tumour and body weights were measured. Results of statistical analyses of the data are presented as P values in the figure legends.
Three additional treatment groups received: 5-FU (13 mg/kg/day×5), vinblastine (1 mg/kg/week) and gemcitabine (100 mg/kg/week). […] Caliper measurements at 1-week intervals were used to calculate tumour volumes. Each point in FIG. 28C represents mean tumour volume calculated from 10 animals per experimental group (with the exception of SEQ ID NO: 1 which was 8 animals). […] After 54 days the mice were sacrificed and the A498 tumours weighed. Each bar represents the mean tumour weight and standard error calculated for each treatment group.

“Also recorded” adds a separate entry of the source.

`O=C1c2c(O)ccc(O)c2C(=O)c2c(NCCNCCO)ccc(NCCNCCO)c21` [Novantrone, mitoxantrone]: the “Tumour weight as % of saline control” value is listed as 57% in [1] (PC-3 (prostatic), SCID, SEQ ID NO:1 10 mg/kg i.v. every other day, mitoxantrone (novantrone) i.v., table does not say which of two experiments); 40% in experiment [2] (first of two printed values (two independent experiments)); 60% in [2] (second of two printed values (two independent experiments)). Further, the “Antitumour effect (tumour weight, FIG. 4B)” value in experiment [1] (PC-3, SCID mice, SEQ ID NO:1 10 mg/kg i.v. every other day 17 times, mitoxantrone 0.8 mg/kg i.v. once a week for four weeks) is listed as “significant delay of tumour growth”. The “Antitumour effect (tumour weight, FIG. 5B)” value in [2] (DU145, SCID mice, SEQ ID NO:1 10 mg/kg i.v. every other day 14 times, mitoxantrone 0.8 mg/kg i.v. once a week for four weeks) was “significant delay of tumour growth”.

For the compound `CC(=O)O[C@H]1C(=O)[C@@]2(C)[C@H]([C@H](OC(=O)c3ccccc3)[C@]3(O)C[C@H](OC(=O)[C@H](O)[C@@H](NC(=O)c4ccccc4)c4ccccc4)C(C)=C1C3(C)C)[C@]1(OC(C)=O)CO[C@@H]1C[C@@H]2O` [Taxol, Paclitaxel, reference compound], the “Tumour weight as % of saline control” value in experiment [3] (HL-60 (leukemia), Taxol resistant, SCID, Taxol 10 mg/kg i.p. weekly) worked out at 119%; in experiment [4] (first of two printed values (study and repeat)) it was 26%; in experiment [4] (second of two printed values (study and repeat)), 61%; in experiment [5] (MDA-MB435-To.1 (breast), Taxol resistant, SCID, SEQ ID NO:1 10 mg/kg i.v. every other day 15 times, Taxol 20 mg/kg, Cisplatin 4 mg/kg i.v. weekly x4), 109%; in experiment [6] it was 32%; in experiment [8] it was 58%. Also, the “Antitumour effect (FIG. 15)” value in [3] (HL-60 taxol-resistant, SCID mice, taxol 10 mg/kg i.p. weekly) is listed as “no effect on tumour growth or weight”. The “Antitumour effect (FIG. 13)” value in experiment [5] (MDA-MB435-To.1 Taxol-resistant, SCID mice, SEQ ID NO:1 10 mg/kg i.v. every other day, Cisplatin 4 mg/kg, Taxol 20 mg/kg i.v. weekly) is “ineffective against Taxol-resistant tumour”. Further, the “tumour volume data as percentage of saline control” value in [7] is 49%.

`CC[C@]1(O)C[C@@H]2CN(CCc3c([nH]c4ccccc34)[C@@](C(=O)OC)(c3cc4c(cc3OC)N(C)[C@H]3[C@@](O)(C(=O)OC)[C@H](OC(C)=O)[C@]5(CC)C=CCN6CC[C@]43[C@@H]65)C2)C1` [Vinblastine, vinblastine]: in experiment [9], the “Tumour weight as % of saline control” value is on record as 26%. The “Effect on tumour growth (volume and weight)” value in experiment [10] is given as “ineffective in stabilization of the tumours; also recorded: at best, a delay in the rate of tumour growth”.

Source of the values: patent US7968526B2, “Antisense oligonucleotides directed to ribonucleotide reductase R2 and uses thereof in the treatment of cancer” (Lorus Therapeutics Inc., priority 2003, dated 2011).
